Laboratory results as given in patent publication US12331035B2, “Bicyclic compound and use thereof” (SK BIOPHARMACEUTICALS CO., LTD., priority 2019, dated 2025).

What follows are compounds tested against T1, PRMT5-MEP50 enzyme complex (Homo sapiens, UniProt O14744) (assay: In vitro PRMT5 enzyme activity assay (methylation of histone H4 arginine H4R3, ELISA absorbance at 450 nm)). Settings: S-adenosylmethionine, histone H4 peptide, 2 hours at room temperature, 8 points 10 μM to 0.128 nM.
T1 construct: purchased BPS Bioscience (USA) 51045
T1 sequence (O14744 2-637 limits assumed): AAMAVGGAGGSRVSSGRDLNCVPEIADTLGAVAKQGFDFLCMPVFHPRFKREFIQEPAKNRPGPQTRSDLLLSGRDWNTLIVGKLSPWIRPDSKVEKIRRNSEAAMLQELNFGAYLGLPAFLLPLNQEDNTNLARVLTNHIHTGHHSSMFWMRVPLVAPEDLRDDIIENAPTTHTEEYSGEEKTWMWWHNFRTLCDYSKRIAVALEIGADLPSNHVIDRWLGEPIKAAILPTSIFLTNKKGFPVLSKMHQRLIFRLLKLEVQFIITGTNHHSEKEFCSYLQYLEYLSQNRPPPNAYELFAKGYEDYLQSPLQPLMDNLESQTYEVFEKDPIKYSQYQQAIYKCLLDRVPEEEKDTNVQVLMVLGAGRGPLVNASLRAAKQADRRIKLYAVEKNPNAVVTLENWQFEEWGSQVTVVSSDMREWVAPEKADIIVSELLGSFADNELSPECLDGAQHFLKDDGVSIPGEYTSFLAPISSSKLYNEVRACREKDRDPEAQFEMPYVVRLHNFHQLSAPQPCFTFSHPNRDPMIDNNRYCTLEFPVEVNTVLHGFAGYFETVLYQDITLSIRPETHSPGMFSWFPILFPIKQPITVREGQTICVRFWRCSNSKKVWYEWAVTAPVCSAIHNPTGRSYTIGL
T1 sequence (Q9BQA1 2-342 partner limits assumed): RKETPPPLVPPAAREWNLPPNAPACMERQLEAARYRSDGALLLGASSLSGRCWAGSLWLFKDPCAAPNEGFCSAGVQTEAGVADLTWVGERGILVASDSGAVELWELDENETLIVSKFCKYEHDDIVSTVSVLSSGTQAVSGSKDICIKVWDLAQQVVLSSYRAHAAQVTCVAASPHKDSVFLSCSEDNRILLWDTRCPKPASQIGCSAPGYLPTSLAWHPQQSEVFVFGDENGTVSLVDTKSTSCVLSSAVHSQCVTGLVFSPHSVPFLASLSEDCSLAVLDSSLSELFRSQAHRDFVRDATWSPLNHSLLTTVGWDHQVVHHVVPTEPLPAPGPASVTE
Assay type: biochemical
Summary of the method: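 Human PRMT5-MEP50 (5 μg/mL working stock) with 2 μM SAM stock on histone H4 (1-20) peptide-coated plates, compound 8-point 1:5 series from 10 μM, 2 h at room temperature. H4R3 methylation detected by antibody/HRP ELISA, absorbance 450 nm; IC50 calculated.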

| SMILES | IC50 [nM] |
| --- | --- |
| CC(=O)N1CCC(Oc2ccc3c(c2)CCN(C[C@H](O)CN2CCc4ccccc4C2)C3=O)CC1 [Example 95, 6-[(1-acetyl-4-piperidyl)oxy]-2-[(2R)-3-(3,4-dihydro-1H-isoquinolin-2-yl)-2-hydroxy-propyl]-3,4-dihydroisoquinolin-1-one] | 100 to 1000 |
| CN(C)C(=O)C1CCN(c2ccc3c(c2)CCN(C[C@H](O)CN2CCc4ccccc4C2)C3=O)CC1 [Example 97, 1-[2-[(2R)-3-(3,4-dihydro-1H-isoquinolin-2-yl)-2-hydroxy-propyl]-1-oxo-3,4-dihydroisoquinolin-6-yl]-N,N-dimethyl-piperidine-4-carboxamide] | 100 to 1000 |
| CC(=O)N1CCCC(Nc2ccc3c(c2)CCN(C[C@H](O)CN2CCc4ccccc4C2)C3=O)CC1 (stereo partly drawn) [Example 98, 6-[(1-acetylazepan-4-yl)amino]-2-[(2R)-3-(3,4-dihydro-1H-isoquinolin-2-yl)-2-hydroxy-propyl]-3,4-dihydroisoquinolin-1-one] | 100 to 1000 |
| CC(=O)N1CCC(Nc2ccc3c(c2)CCN(C[C@H](O)CN2CCc4ccccc4C2)C3=O)C1 (stereo partly drawn) [Example 99, 6-[(1-acetylpyrrolidin-3-yl)amino]-2-[(2R)-3-(3,4-dihydro-1H-isoquinolin-2-yl)-2-hydroxy-propyl]-3,4-dihydroisoquinolin-1-one] | 100 to 1000 |
| O=C1c2ccc(N3CCn4ccnc4C3)cc2CCN1C[C@H](O)CN1CCc2ccccc2C1 [Example 102, 6-(6,8-dihydro-5H-imidazo[1,2-a]pyrazin-7-yl)-2-[(2R)-3-(3,4-dihydro-1H-isoquinoline-2-yl)-2-hydroxy-propyl]-3,4-dihydroisoquinolin-1-one] | 1 to 100 |
| CC1CN(c2ccc3c(c2)CCN(C[C@H](O)CN2CCc4ccccc4C2)C3=O)CC(=O)N1C (stereo partly drawn) [Example 103, 2-[(2R)-3-(3,4-dihydro-1H-isoquinolin-2-yl)-2-hydroxy-propyl]-6-(3,4-dimethyl-5-oxo-piperazin-1-yl)-3,4-dihydroisoquinolin-1-one] | 1 to 100 |
| CC(=O)N1CCN(c2ccc3c(c2)C(C)(C)CN(C[C@H](O)CN2CCc4ccccc4C2)C3=O)CC1 [Example 104, 6-(4-acetylpiperazin-1-yl)-2-[(2R)-3-(3,4-dihydro-1H-isoquinolin-2-yl)-2-hydroxy-propyl]-4,4-dimethyl-3H-isoquinolin-1-one] | 1 to 100 |
| CC(=O)N1CCN(c2ccc3c(c2)C2(CC2)CN(C[C@H](O)CN2CCc4ccccc4C2)C3=O)CC1 [Example 105, 6-(4-acetylpiperazin-1-yl)-2-[(2R)-3-(3,4-dihydro-1H-isoquinolin-2-yl)-2-hydroxy-propyl]spiro[3H-isoquinoline-4,1′-cyclopropane]-1-one] | 1 to 100 |
| O=C1c2ccc(N3CCC(N4CCCC4)CC3)cc2CCN1C[C@H](O)CN1CCc2ccccc2C1 [Example 106, 2-[(2R)-3-(3,4-dihydro-1H-isoquinolin-2-yl)-2-hydroxy-propyl]-6-(4-pyrrolidin-1-yl-1-piperidyl)-3,4-dihydroisoquinolin-1-one] | 1 to 100 |
| O=C1c2ccc(N3CCC(N4CCCCC4)CC3)cc2CCN1C[C@H](O)CN1CCc2ccccc2C1 [Example 107, 2-[(2R)-3-(3,4-dihydro-1H-isoquinolin-2-yl)-2-hydroxy-propyl]-6-[4-(1-piperidyl)-1-piperidyl]-3,4-dihydroisoquinolin-1-one] | 100 to 1000 |
| CN(C)C1CCN(c2ccc3c(c2)C(C)(C)CN(C[C@H](O)CN2CCc4ccccc4C2)C3=O)CC1 [Example 111, 2-[(2R)-3-(3,4-dihydro-1H-isoquinolin-2-yl)-2-hydroxy-propyl]-6-[4-(dimethylamino)-1-piperidyl]-4,4-dimethyl-3H-isoquinolin-1-one] | 100 to 1000 |
| CC1(C)CN(C[C@H](O)CN2CCc3ccccc3C2)C(=O)c2ccc(N3CCOCC3)cc21 [Example 112, 2-[(2R)-3-(3,4-dihydro-1H-isoquinolin-2-yl)-2-hydroxy-propyl]-4,4-dimethyl-6-morpholino-3H-isoquinolin-1-one] | 100 to 1000 |
| CN(C)C1CCCN(c2ccc3c(c2)CCN(C[C@H](O)CN2CCc4ccccc4C2)C3=O)C1 (stereo partly drawn) [Example 116, 2-[(2R)-3-(3,4-dihydro-1H-isoquinolin-2-yl)-2-hydroxy-propyl]-6-[3-(dimethylamino)-1-piperidyl]-3,4-dihydroisoquinolin-1-one] | 100 to 1000 |
| CCN(CC)C1CCN(c2ccc3c(c2)CCN(C[C@H](O)CN2CCc4ccccc4C2)C3=O)CC1 [Example 118, 6-[4-(diethylamino)-1-piperidyl]-2-[(2R)-3-(3,4-dihydro-1H-isoquinolin-2-yl)-2-hydroxy-propyl]-3,4-dihydroisoquinolin-1-one] | 100 to 1000 |
| O=C1c2ccc(N3CCN(C4CCOCC4)CC3)cc2CCN1C[C@H](O)CN1CCc2ccccc2C1 [Example 122, 2-[(2R)-3-(3,4-dihydro-1H-isoquinolin-2-yl)-2-hydroxy-propyl]-6-(4-tetrahydropyran-4-ylpiperazin-1-yl)-3,4-dihydroisoquinolin-1-one] | 100 to 1000 |
| CC1(C)CN(C[C@H](O)CN2CCc3ccccc3C2)C(=O)c2ccc(N3CCC(N4CCCC4)CC3)cc21 [Example 124, 2-[(2R)-3-(3,4-dihydro-1H-isoquinolin-2-yl)-2-hydroxy-propyl]-4,4-dimethyl-6-(4-pyrrolidin-1-yl-1-piperidyl)-3H-isoquinolin-1-one] | 1 to 100 |

Continued, values first:

| IC50 [nM] | SMILES |
| --- | --- |
| 1 to 100 | O=C1c2ccc(N3CCN4C(=O)OCC4C3)cc2CCN1C[C@H](O)CN1CCc2ccccc2C1 (stereo partly drawn) [Example 94, 7-[2-[(2R)-3-(3,4-dihydro-1H-isoquinolin-2-yl)-2-hydroxy-propyl]-1-oxo-3,4-dihydroisoquinolin-6-yl]-5,6,8,8a-tetrahydro-1H-oxazolo[3,4-a]pyrazin-3-one] |
| 100 to 1000 | CC(=O)N1CC(Oc2ccc3c(c2)CCN(C[C@H](O)CN2CCc4ccccc4C2)C3=O)C1 [Example 96, 6-(1-acetylazetidin-3-yl)oxy-2-[(2R)-3-(3,4-dihydro-1H-isoquinolin-2-yl)-2-hydroxy-propyl]-3,4-dihydroisoquinolin-1-one] |
| 1 to 100 | N#CN1CCN(c2ccc3c(c2)CCN(C[C@H](O)CN2CCc4ccccc4C2)C3=O)CC1 [Example 101, 4-[2-[(2R)-3-(3,4-dihydro-1H-isoquinolin-2-yl)-2-hydroxy-propyl]-1-oxo-3,4-dihydroisoquinolin-6-yl]piperazine-1-carbonitrile] |
| 100 to 1000 | O=C1c2ccc(N3CCC(N4CCOCC4)CC3)cc2CCN1C[C@H](O)CN1CCc2ccccc2C1 [Example 108, 2-[(2R)-3-(3,4-dihydro-1H-isoquinolin-2-yl)-2-hydroxy-propyl]-6-(4-morpholino-1-piperidyl)-3,4-dihydroisoquinolin-1-one] |
| 100 to 1000 | COCCN1CCN(c2ccc3c(c2)CCN(C[C@H](O)CN2CCc4ccccc4C2)C3=O)CC1 [Example 109, 2-[(2R)-3-(3,4-dihydro-1H-isoquinolin-2-yl)-2-hydroxy-propyl]-6-[4-(2-methoxyethyl)piperazin-1-yl]-3,4-dihydroisoquinolin-1-one] |
| 100 to 1000 | CN(C)C1CCN(c2ccc3c(c2)CCN(C[C@H](O)CN2CCc4ccccc4C2)C3=O)CC1 [Example 110, 2-[(2R)-3-(3,4-dihydro-1H-isoquinolin-2-yl)-2-hydroxy-propyl]-6-[4-(dimethylamino)-1-piperidyl]-3,4-dihydroisoquinolin-1-one] |
| 1 to 100 | O=C1c2ccc(OCCN3CCOCC3)cc2CCN1C[C@H](O)CN1CCc2ccccc2C1 [Example 113, 2-[(2R)-3-(3,4-dihydro-1H-isoquinolin-2-yl)-2-hydroxy-propyl]-6-(2-morpholinoethoxy)-3,4-dihydroisoquinolin-1-one] |
| 100 to 1000 | CCN1CCC(Oc2ccc3c(c2)CCN(C[C@H](O)CN2CCc4ccccc4C2)C3=O)CC1 [Example 114, 2-[(2R)-3-(3,4-dihydro-1H-isoquinolin-2-yl)-2-hydroxy-propyl]-6-[(1-ethyl-4-piperidyl)oxy]-3,4-dihydroisoquinolin-1-one] |
| 100 to 1000 | CCN1CCC(COc2ccc3c(c2)CCN(C[C@H](O)CN2CCc4ccccc4C2)C3=O)CC1 [Example 115, 2-[(2R)-3-(3,4-dihydro-1H-isoquinolin-2-yl)-2-hydroxy-propyl]-6-[(1-ethyl-4-piperidyl)methyloxy]-3,4-dihydroisoquinolin-1-one] |
| 100 to 1000 | CN(C)CC1CCN(c2ccc3c(c2)CCN(C[C@H](O)CN2CCc4ccccc4C2)C3=O)CC1 [Example 117, 2-[(2R)-3-(3,4-dihydro-1H-isoquinolin-2-yl)-2-hydroxy-propyl]-6-[4-[(dimethylamino)methyl]-1-piperidyl]-3,4-dihydroisoquinolin-1-one] |
| 100 to 1000 | CN(C)CCOC1CCN(c2ccc3c(c2)CCN(C[C@H](O)CN2CCc4ccccc4C2)C3=O)CC1 [Example 119, 2-[(2R)-3-(3,4-dihydro-1H-isoquinolin-2-yl)-2-hydroxy-propyl]-6-[4-[2-(dimethylamino)ethoxy]-1-piperidyl]-3,4-dihydroisoquinolin-1-one] |
| 1 to 100 | COCCN(C)C1CCN(c2ccc3c(c2)CCN(C[C@H](O)CN2CCc4ccccc4C2)C3=O)CC1 [Example 120, 2-[(2R)-3-(3,4-dihydro-1H-isoquinolin-2-yl)-2-hydroxy-propyl]-6-[4-[2-methoxyethyl(methyl)amino]-1-piperidyl]-3,4-dihydroisoquinolin-1-one] |
| 100 to 1000 | O=C1c2ccc(N3CCN(C4COC4)CC3)cc2CCN1C[C@H](O)CN1CCc2ccccc2C1 [Example 121, 2-[(2R)-3-(3,4-dihydro-1H-isoquinolin-2-yl)-2-hydroxy-propyl]-6-[4-(oxetan-3-yl)piperazin-1-yl]-3,4-dihydroisoquinolin-1-one] |
| 100 to 1000 | CCN(CC)C1CCN(c2ccc3c(c2)C(C)(C)CN(C[C@H](O)CN2CCc4ccccc4C2)C3=O)CC1 [Example 123, 6-[4-(diethylamino)-1-piperidyl]-2-[(2R)-3-(3,4-dihydro-1H-isoquinolin-2-yl)-2-hydroxy-propyl]-4,4-dimethyl-3H-isoquinolin-1-one] |
